Laboratory results from patent publication US20250290080A1, “METHODS TO PREVENT RAPID SILENCING OF GENES IN PLURIPOTENT STEM CELLS” (FUJIFILM Cellular Dynamics, Inc., priority 2021, published 2025).
Residue numbers refer to the chain shown, from its start. “Also recorded” adds a separate entry of the source.

B1: CpG-free PuroRv1: CpG-free puromycin resistance gene sequence, SEQ ID NO:15 (nucleic acid)
DNA: ATGACTGAATACAAACCAACTGTTAGACTGGCAACTAGAGATGATGTTCCAAGAGCAGTTAGAACCCTGGCTGCTGCATTTGCTGACTACCCTGCAACCAGACACACTGTGGACCCAGACAGACACATTGAAAGAGTGACTGAACTGCAGGAGCTGTTCCTGACCAGAGTGGGCCTGGACATTGGCAAAGTGTGGGTGGCAGATGATGGTGCTGCTGTGGCAGTGTGGACCACCCCTGAATCTGTTGAAGCTGGTGCAGTGTTTGCTGAGATTGGCCCAAGAATGGCAGAACTGTCTGGCAGCAGACTGGCAGCACAACAGCAGATGGAAGGTCTGCTGGCACCACACAGACCAAAAGAACCTGCTTGGTTCCTGGCAACTGTGGGTGTGAGCCCTGACCACCAGGGTAAGGGCCTGGGCTCTGCAGTGGTGCTGCCTGGTGTGGAAGCAGCTGAAAGAGCAGGTGTGCCTGCTTTCCTGGAGACCTCAGCTCCAAGAAACCTGCCTTTCTATGAAAGACTGGGCTTCACTGTGACTGCTGATGTGGAAGTGCCAGAAGGCCCAAGAACTTGGTGCATGACTAGAAAACCAGGTGCTTGATAATGA
modifications: misc_feature 1..606 Synthetic promotor sequence
B2: PuroRv2: CpG-free puromycin resistance gene version 2, SEQ ID NO:16 (nucleic acid)
DNA: B1 DNA with G550T, T551G, G552C, G556A, A558G, G560A, C562A, C563G, A565G, G566C
modifications: misc_feature 1..606 Synthetic promotor sequence

What was measured:
[1] = test system: silenced CpG-free AcGFP1 clones; test: NaBut treatment of silenced CpG-free AcGFP1 clones, % GFP expression by flow cytometry; type: cell-based
Protocol: FIGS. 5A-5B: Silenced transgene be reactivated with NaBut treatment. A small number of cells were silenced in the CpG-free AcGPF1 cultures (<3% of cells, FIG. 3A). These silenced cells were single cell sorted and expanded to further investigate their silencing and research methods for overcoming the silencing. Two months after sorting for no GFP expression, silenced CpG-free AcGFP1 clones were treated with 1 mM, 0.5 mM, or 1 μM of NaBut. […] After a successful pilot experiment, the duration of NaBut treatment was increased to 46 days with NaBut treatment doses of 0.25 mM and 0.5 mM and the GFP expression levels were monitored over time by fluorescent microscopy and flow cytometry. The initial results were confirmed (FIGS. 5A and 5B, dark blue bar: day 8 of treatment).
However, after 5 months, a small percentage of cells were detected with no GFP expression (3%) even though the CpGs had been removed from AcGFP1. To investigate this population, clones were isolated by single cell sorting for no GFP expression. The cells were treated with sodium butyrate (NaBut), a histone deacetylase (HDAC) inhibitor capable of removing chromatin structure and inducing demethylation.

iPSCs = test: Fluorescent protein transgene expression over time in engineered iPSCs (PPP1R12C/AAVS1 locus); type: cell-based
Description: FIGS. 1A-1D: ZsGreen expression driven by EEF1A1p is mottled in iPSCs. iPSCs 01278.103 (FIG. 1A, 1B) and 01279.107 (FIG. 1C, 1D) were engineered with EEF1A1p-ZsGreen at the PPP1R12C locus. Brightfield and Fluorescence (GFP) microscopy were used to capture the GFP expression in the cells 11 passages post-engineering (FIGS. 1A-1B) or 18 passages post-engineering (FIGS. 1C-1D).
The percent GFP expression in five clones targeted with EEF1A1p-CpG-free-AcGFP1 (FIG. 3A) and nine clones targeted with EEF1A1p-AcGFP1 (FIG. 3B) at the AAVS1 locus was monitored overtime.
FIGS. 4A-4C: Rapid silencing of AcGFP1 in iPSCs. Depiction of engineering iPSCs at the PPP1R12C locus (AAVS1 safe harbor) with three cassettes EEF1A1p-mRFP1+PGKp-Puro, EEF1A1p-AcGFP1 or EEF1A1p-CpG-Free AcGFP1. Noted within the figure are the engineered iPSC ID numbers for cell lines 8717 and 9650 which are used in further experiments throughout the document (FIG. 4A). […] After two months in culture, AcGFP1 engineered iPSCs were bulk sorted for AcGFP1 expression. Brightfield and Fluorescence (GFP) microscopy was used to capture the GFP expression in the cells 12 days post-sorting (FIG. 4B) or 23 days post-sorting (FIG. 4C).
The EEF1A1 promoter was used for expression of AcGFP1 in iPSCs at the PPP1R12C locus.

iPSC line 01279.107 [2] = test: Luciferase expression during transient transfection of promoter-pGL3 plasmids (Dual-Luciferase Reporter Assay); type: cell-based, human; conditions: assayed one day later
Description: Promoters cloned: The following promoters were identified as being likely candidates for constitutive expression in all cell types. Some were cloned from existing plasmids (CAG, PGK, UBC-version1, EEF1A1, ACTB). […] The new promoters include RPS19, UBA52, HSP90AB1, an enlarged region of UBC (version 2), UBB, RPSA, NACA, and COX8A. Sequences were cloned into the pGL3 plasmid vector (replacing the SV40 promoter between MluI and NcoI restriction sites) to enable a comparison of promoter strength when driving the luciferase reporter gene.
Luciferase expression during transient transfection: Transient transfection was performed of the promoter-pGL3 plasmids into iPSCs to determine the strength of expression. Using a 96wp format, 50 uL of E8 media+10 uM blebbistatin was added to each well. Each plasmid was assayed in triplicate by adding 16.5 uL of the following reagent preparation. One well of a 6wp of iPSC line 01279.107 was harvested using Accutase, resuspended in 3.5 mL E8 media+10 uM blebbistatin, and 50 uL was added to each well. One day later the cells were assayed using the Dual-Luciferase Reporter Assay System (Promega).
Expression values at or above the level of the PGK promoter were desired so RPS19, UBA52, HSP90AB1, and UBC were selected for further study.

[3] = test system: iPSC-derived neuronal cells; test: ZsGreen expression after neuronal differentiation protocol, day 21 flow cytometry; type: cell-based, human; conditions: day 21 of differentiation
Description: (§1) Differentiation: In order to determine the stability of expression post-differentiation, the engineered lines were subjected to differentiation protocols to direct them toward either neuronal or cardiac cell types.

[4] = test system: iPSC-derived cardiac cells; test: ZsGreen expression after cardiac differentiation protocol, day 21 flow cytometry; type: cell-based, human; conditions: day 21 of differentiation
Description: as §1

iPSC line 01279.107 [5] = test: ZsGreen expression in engineered iPSC lines in long-term culture, flow cytometry; type: cell-based, human; conditions: for ZsGreen expression in iPSC over time: culture up to seven months, E8 media/vitronectin
Description: ZsGreen Constructs Integrated at the AAVS1 Safe Harbor Locus: To examine longer term expression driven by the candidate promoters in a chromosomal context, they were cloned into plasmids controlling ZsGreen fluorescent protein and targeted to the AAVS1 safe harbor locus on chromosome 19 in human iPSC (plasmid design is shown below using the CAG promoter as an example). […] Correctly targeted heterozygous clones were expanded.
Genomic Loci Suitable for Tagging to Yield Constitutive Expression: In addition to promoter-driven expression from a safe harbor, specific genes expressed in most cell-types can be tagged with a reporter gene to give constitutive expression. The genes HSP90AB1, ACTB, CTNNB1, and MYL6 were chosen for evaluation and were tagged with ZsGreen and an F2A cleavage sequence via TALEN-mediated gene editing. Correctly targeted heterozygous clones were expanded.
ZsGreen expression in iPSC: Engineered iPSC lines expressing ZsGreen fluorescent protein were maintained in culture for up to seven months (E8 media/vitronectin coated plates) and periodically checked for green expression using flow cytometry on an Accuri C6 instrument (BD).

iPSC line 2.038 = test: Drug resistance of iPSC line 2.038 transfected with WT PuroR vs. CpG-free PuroR plasmids; type: cell-based; conditions: cassette introduced into iPSCs by electroporation
Description: The CpG-free PuroR cassette was introduced into iPSCs by electroporation.

Molecule	ZsGreen fluorescence after neuronal differentiation [3]	ZsGreen expression after cardiac differentiation [4]	ZsGreen expression in iPSC over time (iPSC line 01279.107 [5])	further results
CCCC(=O)[O-].[Na+] [NaBut, sodium butyrate]	–	–	–	effect on GFP expression levels over time ([1]; 0.25 mM and 0.5 mM NaBut, 46 days): dose dependent effect; reactivation of GFP expression ([1]; 1 mM, 0.5 mM, or 1 μM NaBut, nine days, flow cytometry): dose dependent reactivation; also recorded: dose-dependent reactivation
AcGFP1: Aequorea coerulescens green fluorescence protein DNA sequence, SEQ ID NO:13 [reference compound]	–	–	–	cells with no GFP expression (silenced) (iPSCs; CpG-free AcGFP1 cultures, after 5 months): 3%; stability of fluorescent protein expression over time (iPSCs; EEF1A1 promoter, PPP1R12C (AAVS1) locus, iPSCs in culture): not maintained overtime; also recorded: did not retain consistent expression
HSP90AB1 promoter: HSP90AB1 promoter, SEQ ID NO:5	–	–	–	Normalized luciferase (Firefly/Renilla ratio, normalized to EEF1A1=100%) (iPSC line 01279.107 [2]): ~75%
HSP90AB1del400 promoter: HSP90AB1 promoter with 417 bp deletion between two ClaI sites, SEQ ID NO:4	many cells with diminishing fluorescence	varying amounts of expression silencing	stable iPSC expression over four months	Normalized luciferase (Firefly/Renilla ratio, normalized to EEF1A1=100%) (iPSC line 01279.107 [2]): around 66%
RPS19: RPS19 promoter, SEQ ID NO:2	tight and stable expression	varying amounts of expression silencing	stable iPSC expression over four months	ZsGreen expression in iPSC at seven months (iPSC line 01279.107 [5]; out to seven months in culture): some silencing
UBA52: UBA52 promoter, SEQ ID NO:3	tight and stable expression	tight and stable expression	stable iPSC expression over four months	–
B1	–	–	–	drug resistance conferred (iPSC line 2.038): capable of conferring drug resistance
B2	–	–	–	drug resistance conferred (iPSC line 2.038): capable of conferring drug resistance
